Legend:
dendritic cell = experiment: Dendritic cell activation or inactivation, same in vitro system as Examples 1 and 2; assay type: cell-based, mouse; conditions: treatment with 1-10 μM
Procedure: (§1) Bone marrow cells were obtained from a C57BL/6 mouse (obtained from Clea Japan) and subjected to cell culture using an RPMI medium (SIGMA, R8758) supplemented with 10% FCS (EQUITECH-BIO Inc., #SFB-30-1388) and granulocyte macrophage colony stimulating factor (GM-CSF) in a 5% CO2 environment at 37° C. for 6 days to induce the differentiation of bone marrow-derived dendritic cells (BMDC). To this BMDC, TPEN (SIGMA, P4413) was added for 6 hours to 12 hours to obtain concentrations of 0-2 μM in the medium. Also prepared was a group in which lipopolysaccharide (LPS; 100 ng/mL; SIGMA, L2637, E. Coli O55:B5) was added for control of antigen-presenting cell activation. […] When the cells were treated with the zinc ion chelator, the expression of MHC class II molecule on BMDC was enhanced as with LPS.
In the same experiment (in vitro system) as Examples 1 and 2, dendritic cell activation or inactivation was observed by a treatment with 1-10 μM zinc ion or TPEN.

[1] = system: bone marrow-derived dendritic cells (BMDC); experiment: Expression of MHC class I, class II and CD86 molecules on the cell surface of dendritic cells treated with a zinc ion chelator (FACS); assay type: cell-based, mouse; conditions: for expression of MHC class II molecule on BMDC: TPEN 0-2 μM for 6 to 12 hours (dose and treatment time dependency), LPS 100 ng/mL as activation control, FACS
Procedure: Dendritic cells, a type of antigen-presenting cells, were treated with N,N,N′,N′-tetrakis(2-pyridylmethyl)ethylenediamine (TPEN), a zinc ion chelator, and examined for the expression of MHC class I molecule, class II molecule and CD86 molecule on the cell surface.
as §1

[2] = dendritic cells treated with zinc ion chelator, FIG. 1

## O=S(=O)([O-])[O-].[Zn+2] [zinc ion, ZnSO4]
Dendritic cell
  dendritic cell activation or inactivation: observed

## lipopolysaccharide [LPS]
[1]
  expression of MHC class II molecule on BMDC: enhanced

## c1ccc(CN(CCN(Cc2ccccn2)Cc2ccccn2)Cc2ccccn2)nc1 [TPEN, N,N,N′,N′-tetrakis(2-pyridylmethyl)ethylenediamine]
[1]
  expression of MHC class II molecule on BMDC: enhanced
[1]; [2]
  expression of CD86 molecule on the cell surface: enhanced
  expression of MHC class I molecule on the cell surface: enhanced
Dendritic cell
  dendritic cell activation or inactivation: observed
